Reference: US20190000860A1, “USE OF COMPOSITIONS MODULATING CHROMATIN STRUCTURE FOR GRAFT VERSUS HOST DISEASE (GVHD)” (Dana-Farber Cancer Institute, Inc., priority 2014, published 2019)

Columns and labels:
mice with cGVHD [1] = format: in vivo; conditions: for survival after 60 days: mice given BM and T-cells, treatment began 28 days post-transplant (Day 28-56), JQ5 or UNC1999 75 mg/Kg 3 days a week, Bcl6 peptidomimetic every day (Table 3, FIG. 8)
Description: B10.BR recipients were conditioned with cytoxan on days −3 and −2 (120 mg/kg/day i.p.). On day −1, recipients received TBI by x-ray (8.3 Gy). B6 donor BM was T-cell depleted with anti-Thy1.2 mAb followed by rabbit complement. T-cells were purified from spleens by incubation with biotin-labeled anti-CD19, anti-CD11b, anti-CD11c, anti-NK1.1 and anti-γδTCR (eBioscience), followed by strepavidin beads and depletion with magnetic column (StemCell Technologies). On day 0, recipients received 10×10^6 T cell depleted BM cells with or without allogeneic spleen purified T cells (0.075-0.1×106), Weights of individual mice were recorded weekly. Where indicated, recipients in BM and T cell groups were given EZH2 inhibitor (either JQ-EZH2-5 ([…]) or JQ1 (50 μg/animal/Daily) in 10% Hydroxypropyl-beta-cyclodextrin and DMSO in a 9:[…]) in PBS.
Animals in this experiment were transplanted with wild-type BM and T-cells and then treated with either Vehicle, EZH2 inhibitor (JQ5 or UNC1999) or Bcl6 inhibitor. Administration of UNC1999 was toxic, resulting in less than 40% survival 63 days post-transplant. (FIG. 8).

mice with cGVHD [2] = experiment: Pulmonary function tests (lung resistance, elastance, compliance; forced oscillation technique, Scireq Flexivent); format: in vivo, mouse (B10.BR recipients)
Description: B10.BR recipients were conditioned with cytoxan on days −3 and −2 (120 mg/kg/day i.p.). On day −1, recipients received TBI by x-ray (8.3 Gy). B6 donor BM was T-cell depleted with anti-Thy1.2 mAb followed by rabbit complement. T-cells were purified from spleens by incubation with biotin-labeled anti-CD19, anti-CD11b, anti-CD11c, anti-NK1.1 and anti-γδTCR (eBioscience), followed by strepavidin beads and depletion with magnetic column (StemCell Technologies). On day 0, recipients received 10×10^6 T cell depleted BM cells with or without allogeneic spleen purified T cells (0.075-0.1×106), Weights of individual mice were recorded weekly. Where indicated, recipients in BM and T cell groups were given EZH2 inhibitor (either JQ-EZH2-5 (75 μg/animal/3 times a week) or JQ1 (50 μg/animal/Daily) in 10% Hydroxypropyl-beta-cyclodextrin and DMSO in a 9:1 ratio) or Bcl 79-6 (50 μg/animal/three times a week) in PBS.
(§1) In particular, B10.BR mice were conditioned with 120 mg/Kg of cyclophosphamide on day −3 and −2 and subjected to total body irradiation (830X) on day −1. On Day 0 mice were transplanted with wild type B6 bone marrow with or without splenocytes or purified splenic T cells. Day 28 following transplantation, mice were either given vehicle control or JQ5 (75 mg/Kg 3× a week) until day 56. On Day 60 mice were subjected to forced oscillation technique on the Scireq Flexivent system. Tissues were harvested and analyzed for collagen deposition by trichrome staining, Ig deposition, presence of germinal centers, germinal center B cells, and T follicular helper cells.
as §1, with “Pulmonary function tests were performed on animals treated with Bcl 79-6. The presence of Germinal Center B cells and fibrosis in lungs were also assessed.” for “In particular,”, “Wild Type” for “wild type”, “Bone” for “bone”, “Bcl6 79-6 (50” for “JQ5 (75”, “Daily)” for “3× a week)”, “cells” for “cells,”

mice with cGVHD [3] = experiment: Collagen deposition in the lungs (trichrome staining); format: in vivo, mouse (B10.BR recipients); conditions: for collagen deposition in the lungs vs Vehicle-treated mice: Table 3 experiment, treatment Day 28-56, JQ5 75 mg/Kg 3 days a week, Bcl6 peptidomimetic every day (FIG. 10, 13)
Description: (§2) B10.BR recipients were conditioned with cytoxan on days −3 and −2 (120 mg/kg/day i.p.). On day −1, recipients received TBI by x-ray (8.3 Gy). B6 donor BM was T-cell depleted with anti-Thy1.2 mAb followed by rabbit complement. T-cells were purified from spleens by incubation with biotin-labeled anti-CD19, anti-CD11b, anti-CD11c, anti-NK1.1 and anti-γδTCR (eBioscience), followed by strepavidin beads and depletion with magnetic column (StemCell Technologies). On day 0, recipients received 10×10^6 T cell depleted BM cells with or without allogeneic spleen purified T cells (0.075-0.1×106), Weights of individual mice were recorded weekly. Where indicated, recipients in BM and T cell groups were given EZH2 inhibitor (either JQ-EZH2-5 (75 μg/animal/3 times a week) or JQ1 (50 μg/animal/Daily) in 10% Hydroxypropyl-beta-cyclodextrin and DMSO in a 9:[…]) in PBS.
as §1
as §1, with “Pulmonary function tests were performed on animals treated with Bcl 79-6. The presence of Germinal Center B cells and fibrosis in lungs were also assessed.” for “In particular,”, “Wild Type” for “wild type”, “Bone” for “bone”, “Bcl6 79-6 (50” for “JQ5 (75”, “Daily)” for “3× a week)”, “cells” for “cells,”

germinal center B cells = experiment: Germinal center B cells in cGVHD mice; format: in vivo, mouse (B10.BR recipients); conditions: for germinal center B cells in the spleens: Table 3 experiment, Bcl6 peptidomimetic every day, Day 28-56 (FIG. 12)
Description: as §2, §1
Pulmonary function tests were performed on animals treated with Bcl 79-6. The presence of Germinal Center B cells and fibrosis in lungs were also assessed. B10.BR mice were conditioned with 120 mg/Kg of cyclophosphamide on day −3 and −2 and subjected to total body irradiation (830X) on day −1. […] Tissues were harvested and analyzed for collagen deposition by trichrome staining, Ig deposition, presence of germinal centers, germinal center B cells and T follicular helper cells.

mice with cGVHD [4] = experiment: Pulmonary function tests (lung resistance, elastance, compliance; forced oscillation technique, Scireq Flexivent); format: in vivo, mouse (B10.BR recipients); remark: listed apart in the source
[5] = Table 6 experiment, Bcl6 79-6 50 mg/Kg Daily, day 28 until day 56 (FIG. 19), 50 mg/kg
[6] = Table 6 experiment, Bcl6 79-6 50 mg/Kg Daily, day 28 until day 56, measured Day 60 (FIG. 19)
[7] = additional experiments (not shown), JQ1 treatment

SMILES	survival after 60 days (mice with cGVHD [1])	pulmonary function (lung resistance, elastance and compliance) vs Vehicle-treated mice (mice with cGVHD [2]; Table 3 experiment, treatment Day 28-56, JQ5 75 mg/Kg 3 days a week, Bcl6 peptidomimetic every day (FIG. 9, 11))	collagen deposition in the lungs vs Vehicle-treated mice (mice with cGVHD [3])	collagen deposition in the lungs vs Vehicle-treated mice (mice with cGVHD [3]; listed as Bcl6 79-6)	collagen in Trichrome staining (lungs) (mice with cGVHD [3]; [5])	germinal center B cells in the spleens (germinal center B cells)	germinal center B cells in the spleens (germinal center B cells; listed as Bcl6 79-6)	Germinal Center B cells (germinal center B cells; [5])	lung compliance (mice with cGVHD [4]; [6])	lung elastance (mice with cGVHD [4]; [6])	lung resistance (mice with cGVHD [4]; [6])	pulmonary function (mice with cGVHD [4]; [6])	compliance in pulmonary function tests vs vehicle-treated control animals (mice with cGVHD [2]; [7])	elastance in pulmonary function tests vs vehicle-treated control animals (mice with cGVHD [2]; [7])	resistance in pulmonary function tests vs vehicle-treated control animals (mice with cGVHD [2]; [7])	collagen deposition in the lungs vs Vehicle-treated control mice (mice with cGVHD [3]; Table 4 experiment, JQ1 50 mg/Kg Daily, Day 28-56 (FIG. 15), 50 mg/kg)	pulmonary function vs Vehicle-treated control mice (mice with cGVHD [4]; Table 4 experiment, JQ1 50 mg/Kg Daily, Day 28-56 (FIG. 14), 50 mg/kg)	survival 63 days post-transplant (mice with cGVHD [1]; mice given wild-type BM and T-cells, 75 mg/KG UNC1999 3 days a week, Day 28-56 (Table 3, FIG. 8))
O=C(O)CC(C(=O)O)N1C(=O)/C(=C2/C(=O)Nc3ccc(Br)cc32)SC1=S (stereo not shown) [79-6]	100%	improved pulmonary function	decreased	decreased collagen deposition	decreased collagen	reduction	decreased germinal center B cells	decreased Germinal Center B cells	increase	decrease	decrease	Restored pulmonary function	–	–	–	–	–	–
Cc1sc2c(c1C)C(c1ccc(Cl)cc1)=N[C@@H](CC(=O)OC(C)(C)C)c1nnc(C)n1-2 [JQ1]	–	–	–	–	–	–	–	–	–	–	–	–	significantly increased	decreased	decreased	decreased collagen deposition	improves pulmonary function	–
CCCc1cc(C)[nH]c(=O)c1CNC(=O)c1cc(-c2ccc(N3CCN(C(C)C)CC3)nc2)cc2c1cnn2C(C)C [UNC1999]	< 40%	–	–	–	–	–	–	–	–	–	–	–	–	–	–	–	–	less than 40%
